This experiment relates to Plasmodium berghei. As to the kind of experiment: Luciferase/luciferin-expressing antifolate-resistant parasites were used to infect a culture of HepG2 cells that were pre-incubated with compounds. Infected hepatocytes emit light due to the luciferase reaction. Assay results are presented as the percent inhibition of light emission compared to control. […]. Type of experiment: functional. The conditions noted are these: sporozoite; for IC90: read-out: LUCIFERASE INFECTION ASSAY - IC90.

[1] abbreviates: read-out: LUCIFERASE INFECTION ASSAY - IC50.

A word on the IC50: it is the concentration at which inhibition is half-maximal. As a reminder, the IC90 is the concentration needed for an effect of 90%.

Take `Oc1ccc(-c2cn3c(-c4ccc(Cl)cc4)cnc3cn2)cc1`: the IC90 was 5.63 µM. In addition, the IC50 (HEPG2TOX_HILL_SLOPE 7.91, HEPG2TOX_R_SQUARED 0.667, PBLUC_HILL_SLOPE 4.16, PBLUC_R_SQUARED 0.739, read-out: LUCIFERASE INFECTION ASSAY - IC50) came to 3.32 µM.
On to `OC(c1ccc(Cl)c(F)c1)c1nc(-c2cccc(C(F)(F)F)c2)c[nH]1` (stereo not given), for which the IC90 is greater than 8.9 µM. The IC50 (FFLUC_HILL_SLOPE 12.1, FFLUC_R_SQUARED 0.0756, read-out: LUCIFERASE INFECTION ASSAY - IC50) was greater than 8.9 µM.
In the case of `C=CCc1ccccc1OCC(O)CNC(C)(C)CC(C)(C)C` (stereo not given), the IC90 was determined as 4.91 µM. In addition, the IC50 (HEPG2TOX_HILL_SLOPE 15.1, HEPG2TOX_R_SQUARED 0.905, PBLUC_HILL_SLOPE 217, PBLUC_R_SQUARED 0.361, read-out: LUCIFERASE INFECTION ASSAY - IC50) was determined as 4.86 µM.
As to `CN(C)c1cccc(-c2cnc3cnc(-c4cnn(Cc5ccccc5)c4)cn23)c1`, the IC90 was greater than 8.37 µM. Moreover, the IC50 under setting [1] is greater than 8.37 µM.
With `COc1ccc(/C=C2\CN(Cc3ccccc3)CC3(C=NN(CCO)C3c3ccc(OC)cc3)C2)cc1` (stereo not given), the IC90 is greater than 6.63 µM. Further, the IC50 under setting [1] is greater than 6.63 µM.
On to `O=C(Nc1ccccc1)c1ccc(C#Cc2ccccc2)o1`, for which the IC90 was greater than 11.5 µM. Further, the IC50 under setting [1] is greater than 11.5 µM.
On to `CC(C)Cc1ccc(C(=O)CC2OC(=O)c3ccccc32)cc1` (stereo not given), for which the IC90 is greater than 10.7 µM. The IC50 (FFLUC_HILL_SLOPE 1.52, FFLUC_R_SQUARED 0.66, PBLUC_HILL_SLOPE 3.96, PBLUC_R_SQUARED 0.504, read-out: LUCIFERASE INFECTION ASSAY - IC50) is 8.38 µM.
`CS(=O)(=O)Nc1cccc(-c2cn3c(-c4ccc(Cl)cc4)cnc3cn2)c1`: the IC90 was found to be 1.05 µM. Further, the IC50 (HEPG2TOX_HILL_SLOPE 10.9, HEPG2TOX_R_SQUARED 0.801, PBLUC_HILL_SLOPE 12.2, PBLUC_R_SQUARED 0.805, read-out: LUCIFERASE INFECTION ASSAY - IC50) was 0.873 µM.
Turning to `COc1ccc(-c2cnc3cnc(-c4ccc(C(=O)NC5CC5)cc4)cn23)cn1`, the IC90 was greater than 8.56 µM. In addition, the 50% inhibitory concentration (IC50) (PBLUC_HILL_SLOPE 21.9, PBLUC_R_SQUARED 0.538, read-out: LUCIFERASE INFECTION ASSAY - IC50) came out at 7.8 µM.
In the case of `CC1(C(=O)NCCC(F)(F)F)Cc2c(-c3ccc4c(c3)OCO4)ccnc2O1` (stereo not given), the IC90 came out at 6.15 µM. Where the note is “FFLUC_HILL_SLOPE 14.8, FFLUC_R_SQUARED 0.74, HEPG2TOX_HILL_SLOPE 2.73, HEPG2TOX_R_SQUARED 0.858, PBLUC_HILL_SLOPE 3.16, PBLUC_R_SQUARED 0.521, read-out: LUCIFERASE INFECTION ASSAY - IC50”, the IC50 amounted to 3.07 µM.
On to `CC(NC(=O)CSc1nnc(-c2cccs2)[nH]1)c1ccc2c(c1)CCCC2` (stereo not given), for which the IC90 is greater than 10 µM. Besides, the IC50 (HEPG2TOX_HILL_SLOPE 0.208, HEPG2TOX_R_SQUARED 0.204, PBLUC_HILL_SLOPE 1.17, PBLUC_R_SQUARED 0.355, read-out: LUCIFERASE INFECTION ASSAY - IC50) is 7.84 µM.
With `[O-][S+](Cc1cc(N2CCCCC2)nc(-c2ccccn2)n1)c1ccc(Cl)cc1` (stereo not given), the IC90 was greater than 7.99 µM. Also, the IC50 under setting [1] is greater than 7.99 µM.
Consider `CN(C)C(=O)c1cccc(-c2cn3c(-c4ccc(N(C)C)cc4)cnc3cn2)c1`, for which the IC90 was determined as 7.57 µM. For the same molecule, the IC50 under setting [1] turned out to be 4.36 µM.
In the case of `COc1ccc2cc(CNc3ncnc4n[nH]cc34)ccc2c1`, the IC90 came out at 4.29 µM. The IC50 (HEPG2TOX_HILL_SLOPE 1.04, HEPG2TOX_R_SQUARED 0.97, PBLUC_HILL_SLOPE 1.64, PBLUC_R_SQUARED 0.72, read-out: LUCIFERASE INFECTION ASSAY - IC50) is 1.13 µM.
Regarding `COc1cc2[nH]c(C(=O)Nc3cccc(C(F)(F)F)c3)cc2c(OC)c1OC`, the IC90 is 8.28 µM. The IC50 under setting [1] came to 7.63 µM.
As to `C=CCn1c(SCc2c(C(=O)OCC)sc(N)c2C#N)nnc1-c1ccc(Cl)cc1Cl`, the IC90 was greater than 10 µM. Further, the IC50 under setting [1] was greater than 10 µM.
As to `Cc1cc(C)c(S(=O)(=O)N(Cc2cccc3ccccc23)c2c(C)n(C)n(-c3ccccc3)c2=O)c(C)c1`, the IC90 is 9.71 µM. The IC50 (HEPG2TOX_HILL_SLOPE 7.62, HEPG2TOX_R_SQUARED 0.586, PBLUC_HILL_SLOPE 20.2, PBLUC_R_SQUARED 0.47, read-out: LUCIFERASE INFECTION ASSAY - IC50) turned out to be 8.71 µM.
On to `Cn1/c(=N/C(=O)c2ccc(=O)[nH]c2)sc2ccccc21`, for which the IC90 is greater than 10 µM. The IC50 (HEPG2TOX_HILL_SLOPE 1.38, HEPG2TOX_R_SQUARED 0.749, PBLUC_HILL_SLOPE 1.3, PBLUC_R_SQUARED 0.494, read-out: LUCIFERASE INFECTION ASSAY - IC50) came to 2.61 µM.
As for `CC(C)c1ccc(Nc2ncnc(N)n2)c(Br)c1`, the IC90 was greater than 10.7 µM. In addition, the IC50 under setting [1] is greater than 10.7 µM.
For the molecule `O=C1/C(=C\c2ccncc2)C(c2ccccc2)Oc2ccccc21` (stereo not given), the IC90 came out at 9.96 µM. In addition, under setting [1], the IC50 was 9.06 µM.
For the molecule `O=C(c1ccco1)N1CCN(c2ncnc3c2[nH]c2ccc(F)cc23)CC1`, the IC90 was greater than 9.03 µM. Also, the IC50 (HEPG2TOX_HILL_SLOPE 1.18, HEPG2TOX_R_SQUARED 0.668, PBLUC_HILL_SLOPE 1.45, PBLUC_R_SQUARED 0.295, read-out: LUCIFERASE INFECTION ASSAY - IC50) is greater than 9.03 µM.
Regarding `O=C(CCc1ccc(O)cc1)NNC(=S)Nc1ccc(Cl)c(Cl)c1`, the IC90 is greater than 8.59 µM. Besides, the IC50 (PBLUC_HILL_SLOPE 3.89, PBLUC_R_SQUARED 0.475, read-out: LUCIFERASE INFECTION ASSAY - IC50) was 5.88 µM.
As for `COc1ccc(-c2cc(C3(CNCc4ccc(N(C)C)cc4)CC3)ccn2)cn1`, the IC90 is greater than 10 µM. The IC50 under setting [1] was greater than 10 µM.
For the molecule `CN(C)c1cccc(-c2ccc3ncc(-c4ccoc4)n3n2)c1`, the IC90 came to 9.49 µM. The IC50 (PBLUC_HILL_SLOPE 19.8, PBLUC_R_SQUARED 0.226, read-out: LUCIFERASE INFECTION ASSAY - IC50) came out at 8.49 µM.
`CN(C)C(=O)CC(NC(=O)Nc1ccc(F)cc1F)c1ccccc1` (stereo not given): the IC90 is greater than 10 µM. In addition, the IC50 under setting [1] was greater than 10 µM.
Consider `Cc1nnc(SCC(=O)Nc2ccc(Cl)cn2)n(N)c1=O`, for which the IC90 was greater than 10 µM. Moreover, the IC50 under setting [1] was greater than 10 µM.
As to `CCCn1c(NC(=O)c2cc(-c3cccs3)nc3ccccc23)nc2ccccc21`, the IC90 was greater than 10 µM. Moreover, the IC50 (PBLUC_HILL_SLOPE 14.7, PBLUC_R_SQUARED 0.767, read-out: LUCIFERASE INFECTION ASSAY - IC50) is 9.26 µM.
With `O=S(=O)(c1ccc(Br)s1)N(c1ccc2c(c1)OC1(CCCC1)O2)S(=O)(=O)c1ccc(Br)s1`, the IC90 is greater than 10 µM. The IC50 under setting [1] came to 4.98 µM.
`COCCCNC1=NN=C(c2cc(C)n(-c3ccccc3F)c2C)CS1`: the IC90 is 9.7 µM. For the same molecule, under “HEPG2TOX_HILL_SLOPE 3.65, HEPG2TOX_R_SQUARED 0.669, PBLUC_HILL_SLOPE 1.05, PBLUC_R_SQUARED 0.653, read-out: LUCIFERASE INFECTION ASSAY - IC50”, the IC50 was 1.2 µM.
For `Cc1cccc(Nc2cc3[nH]c(-c4ccc(C(=O)N(C)C)cc4)cc3cn2)c1`, the IC90 is greater than 10 µM. The IC50 under setting [1] came out at 6.24 µM.
As for `CNS(=O)(=O)c1ccc(NC(=O)c2ccc3[nH]c(C)c(C)c3c2)cc1`, the IC90 was greater than 10 µM. Besides, the concentration for half-maximal inhibition (IC50) under setting [1] is greater than 10 µM.
As to `COc1ccc2c(-c3ccccc3)cc(NCCc3ccc(S(N)(=O)=O)cc3)nc2c1`, the IC90 is greater than 10 µM. Also, under setting [1], the IC50 came to 8.55 µM.
As for `Cc1cc(NC(=O)c2ccc(-c3cccc4ccccc34)s2)no1`, the IC90 was greater than 10 µM. Further, the IC50 (PBLUC_HILL_SLOPE 2.6, PBLUC_R_SQUARED 0.519, read-out: LUCIFERASE INFECTION ASSAY - IC50) worked out at 5.02 µM.
For `CCc1cc(=O)n2nc(Cc3ccccc3)c(-c3ccccc3)c2[nH]1`, the IC90 was greater than 10 µM. Further, the IC50 (HEPG2TOX_HILL_SLOPE 8.68, HEPG2TOX_R_SQUARED 0.27, PBLUC_HILL_SLOPE 11.4, PBLUC_R_SQUARED 0.149, read-out: LUCIFERASE INFECTION ASSAY - IC50) came out at 8.75 µM.
With `COC(=O)c1cc([N+](=O)[O-])ccc1N1CCN(c2cc(C)nc(C(C)C)n2)CC1`, the IC90 was greater than 10 µM. Besides, the IC50 under setting [1] is greater than 10 µM.
Take `CCn1c2ccccc2c2cc(NC(=O)CN3CCN(Cc4ccc5c(c4)OCO5)CC3)ccc21`: the IC90 is greater than 10 µM. The IC50 (PBLUC_HILL_SLOPE 2.07, PBLUC_R_SQUARED 0.0912, read-out: LUCIFERASE INFECTION ASSAY - IC50) stood at 8.08 µM.
In the case of `Oc1c(C(Nc2nc3ccccc3s2)c2ccc(OC(F)F)cc2)ccc2cccnc12` (stereo not given), the IC90 is greater than 10 µM. In addition, the IC50 under setting [1] was determined as 5.55 µM.
`O=C(/C=C/c1cn(Cc2ccccc2)nc1-c1ccccc1)N1CCN(c2ccncc2)CC1`: the IC90 is 6.13 µM. Also, the IC50 (PBLUC_HILL_SLOPE 2.17, PBLUC_R_SQUARED 0.608, read-out: LUCIFERASE INFECTION ASSAY - IC50) is 2.22 µM.
On to `COc1ccc(NS(=O)(=O)c2cc(NCc3ccccc3C)cc(C(=O)NCCN(C)C)c2)cc1`, for which the IC90 is greater than 6.64 µM. Moreover, the IC50 (HEPG2TOX_HILL_SLOPE 13.2, HEPG2TOX_R_SQUARED 0.729, PBLUC_HILL_SLOPE 3.39, PBLUC_R_SQUARED 0.479, read-out: LUCIFERASE INFECTION ASSAY - IC50) stood at 4.55 µM.
`Clc1ccc2nc(CSc3nnc4c(n3)[nH]c3ccccc34)cn2c1`: the IC90 stood at 9.67 µM. Further, the IC50 (FFLUC_HILL_SLOPE 14.4, FFLUC_R_SQUARED 0.465, PBLUC_HILL_SLOPE 2.72, PBLUC_R_SQUARED 0.431, read-out: LUCIFERASE INFECTION ASSAY - IC50) worked out at 4.31 µM.

The values are drawn from ChEMBL document CHEMBL4483862, “Open-source discovery of chemical leads for next-generation chemoprotective antimalarials” (2018).
